The numbers were not newly measured in paper PMC10855781 (International Journal of Molecular Sciences, 2024), which cites them from elsewhere.

Where two headings read alike, the source gives them in different places. A value given as a limit tells only on which side of the number the result lay.

The test system of data set [1] is HT-29 human colon cancer. The note with it: SCID mice, single i.p. 2.5 mg/kg (4.43 μmol); ref [81]. The method, then:
Table 3 In vivo tumor growth inhibition of a few relevant Dau-GnRH-III conjugates. | column: HT-29 ^b s.c. SCID [%] || In another experiment, HT-29 human colon cancer was developed s.c. in immunodeficient SCID mice. Dau and two conjugates (with or without a GFLG spacer between the GnRH-III homing peptide and the payload) were used for the treatment. The first i.p. administrations were performed on day 13 after tumor inoculation. All the mice treated once with 2.5 mg/kg body weight (4.43 μmol) free Dau died within 10 days. In contrast, the conjugates at a dose of 15 mg Dau content/kg body weight (26.6 μmol) that refers to 52 mg/kg [^8Lys(Dau=Aoa)]-GnRH-III and 62.5 mg/kg [^8Lys(Dau=Aoa-GFLG)]-GnRH-III co ...

Data set [2] deals with HT-29 tumor. Conditions: ref [18]. On the procedure: In our group, we synthesized conjugates based on a heptapeptide (VHLGYAT) selected by Zhang et al. and tested them on HT-29 human colon adenocarcinoma. Since sequence modification may result in different oxime-linked Dau-amino acid fragments, a cathepsin B- labile spacer was incorporated to the N-terminal of the homing peptide. From the parent compound (Dau=Aoa-LRRY-VHLGYAT-NH2), the potential positions that can be substituted were selected using Ala-scan. […] Statistical analysis was performed by Mann-Whitney test. *, ** and *** mean significant at p < 0.05, p < 0.01 and p < 0.001, respectively. Adapted with permission from ref. [18]. 2019, Elsevier. TEXT PRINTED IN THE PICTURE: (a) Dau: Tumour weight (g): 16% | (a) Parent: Tumour weight (g): 35% | (a) G/F exchange: Tumour weight (g): 11% | (b) Dau: Liver weight (g): 72% | (b) Parent: Liver weight (g): 101% | (b) G/F exchange: Liver weight (g): 90% | (c) Dau: Prol ...

Data set [3] has as its system mice. From the text:
The most widely studied oxime-linked daunomycin–peptide conjugates were GnRH-III-based derivatives. GnRH-III (<[…]-NH2, where <E is pyroglutamic acid) was first isolated from sea lamprey and has a very low-level hormonal effect in mammals, but binds to both the human GnRH receptors (GnRH-IR and GnRH-IIR). […] Nevertheless, the results of the in vivo acute and chronic toxicity measureme ...

On to `COc1cccc2c1C(=O)c1c(O)c3c(c(O)c1C2=O)C[C@@](O)(C(C)=O)C[C@@H]3O[C@H]1C[C@H](N)[C@H](O)[C@H](C)O1` [Dau, daunomycin], for which the “time within which all treated mice died” value in data set [1] is recorded as ≤ 10 days. Further, the “tumor weight reduction compared to the control group” value in data set [2] (conjugates 10 mg/kg Dau content i.p. days 13, 16, 20, 23, 27, end day 30, Dau 1 mg/kg days 13 and 20, sacrificed day 23) is on record as 84%. In addition, in data set [2] (same experiment as E56), the “decrease in liver weight vs controls” value is given as 28%. Moreover, the “dose with remarkable toxicity” value in data set [3] (healthy mice) is > 2 mg/kg; in data set [3] (immunodeficient mice), > 1 mg/kg.
